# Tested on: relapsed or refractory (R/R) AML
# Test: Phase 1b antileukemic activity: bone marrow evaluation, response by modified International Working Group criteria 2003
# Format: in vivo, human
# Parameters: key to Clinical Response: NR = Non-responder; Responders were defined as patients achieving complete response (BM blasts <5%) with or without count recovery (CR+CRi)
# Conditions: for BM % Blasts Log2(C1/C0): end of cycle 1 vs screening
# Description: Treatment plan and study design: […] Antileukemic activity: […] Response to treatment was evaluated by the investigator using the modified International Working Group criteria 2003, detailed in Table 2. Antileukemic activity was assessed in all patients evaluable for DLTs.
# [1] = 20 patients chosen for ctDNA analysis
compound,measurement,setting,value
"CN1CCN(c2ccc(OC(F)(F)F)c(Nc3ncc4c(n3)-c3c(c(C(N)=O)nn3CCO)CC4)c2)CC1 [onvansertib, 1-(2-hydroxyethyl)-8-{[5-(4-methylpiperazin-1-yl)-2-(trifluoromethoxy)phenyl]amino}-4,5-dihydro-1H-pyrazolo [4,3-h] quinazoline-3-carboxamide]","Non-Responders, (%)",[1],70%
same,"Responders, (%)",[1],30%
same,patients with PR,LDAC arm,one
same,patients with ≥50% reduction in bone marrow blasts,"LDAC arm, 12 patients",25%
same,CRi rate,"LDAC arm, 15 patients",7%
same,Clinical Response,Patient 01-021,NR
same,BM % Blasts Log2(C1/C0),Patient 01-021,−0.8625
same,Clinical Response,Patient 01-024,NR
same,BM % Blasts Log2(C1/C0),Patient 01-024,−0.3219
same,Clinical Response,Patient 03-037,Responder
same,BM % Blasts Log2(C1/C0),Patient 03-037,0.8301
same,Clinical Response,Patient 05-016,NR
same,BM % Blasts Log2(C1/C0),Patient 05-016,3.0704
same,Clinical Response,Patient 05-030,Responder
same,BM % Blasts Log2(C1/C0),Patient 05-030,−2.0000
same,Clinical Response,Patient 05-043,NR
same,BM % Blasts Log2(C1/C0),Patient 05-043,−0.4150
same,Clinical Response,Patient 07-009,Responder
same,BM % Blasts Log2(C1/C0),Patient 07-009,−0.0468
same,Clinical Response,Patient 07-013,NR
same,Clinical Response,Patient 07-018,NR
same,Clinical Response,Patient 07-033,NR
same,Clinical Response,Patient 07-035,Responder
same,BM % Blasts Log2(C1/C0),Patient 07-035,−1.7370
same,Clinical Response,Patient 07-036,NR
same,BM % Blasts Log2(C1/C0),Patient 07-036,−1.0000
same,Clinical Response,Patient 08-027,NR
same,BM % Blasts Log2(C1/C0),Patient 08-027,−0.1043
same,Clinical Response,Patient 08-058,Responder
same,BM % Blasts Log2(C1/C0),Patient 08-058,0.9329
same,Clinical Response,Patient 09-026,NR
same,BM % Blasts Log2(C1/C0),Patient 09-026,0.3785
same,Clinical Response,Patient 09-032,NR
same,BM % Blasts Log2(C1/C0),Patient 09-032,0.1454
same,Clinical Response,Patient 09-064,Responder
same,BM % Blasts Log2(C1/C0),Patient 09-064,−3.9069
same,Clinical Response,Patient 11-019,NR
same,BM % Blasts Log2(C1/C0),Patient 11-019,0.0000
same,Clinical Response,Patient 11-040,NR
same,BM % Blasts Log2(C1/C0),Patient 11-040,0.4021
same,Clinical Response,Patient 12-041,NR
same,BM % Blasts Log2(C1/C0),Patient 12-041,0.6951
same,median duration of CR/CRi,decitabine arm,5.5 months
same,median number of cycles to achieve CR/CRi,decitabine arm,4 cycles
same,range of duration of CR/CRi,decitabine arm,1.5-11.5 months
same,range of number of cycles to achieve CR/CRi,decitabine arm,1-7 cycles
same,"Overall response rate (ORR: CR, CRi, MLFS, PR)",decitabine arm (7/21 patients),33%
same,patients with ≥50% reduction in bone marrow blasts,"decitabine arm, 18 patients with evaluable bone marrow biopsy",44%
same,patients with MLFS,"decitabine arm, Phase 1b",one
same,patients with PR,"decitabine arm, Phase 1b",one
same,CR/CRi rate,"decitabine arm, Phase 1b, 21 evaluable patients, all doses",24%
same,median number of cycles to achieve CR/CRi,responders of both arms (n=6),3 cycles
same,range of number of cycles to achieve CR/CRi,responders of both arms (n=6),1-7 cycles

# From patent US20230167505A1, “CIRCULATING TUMOR DNA AS A BIOMARKER FOR LEUKEMIA TREATMENT” (Cardiff Oncology, Inc., priority 2020, published 2023)
